Test results as given in patent publication US10081630B2, “Radioactive halogen-labeled pyrido [1,2-A] benzimidazole derivative compound” (KYOTO UNIVERSITY, priority 2015, dated 2018).

Key:
[1] = test system: tau accumulated in the brain with AD; assay: In vitro autoradiography using autopsied brain tissue of Alzheimer's disease patient; assay type: binding, human
Method: (Evaluation 1) In Vitro Autoradiography Using Autopsied Brain Tissue of Alzheimer's Disease Patient (1) In Vitro Autoradiography
Autopsied brain tissue sections of an Alzheimer's disease (AD) patient (sections from a frontal lobe site and a temporal lobe site, 6 μm) were used, which were provided from Graduate School of Medicine, Kyoto University and National Cerebral and Cardiovascular Center Hospital. Deparaffinization treatment was performed by washing with xylene (15 min×2), ethanol (1 min×2), a 90 vol % aqueous ethanol solution (1 min×1), an 80 vol % aqueous ethanol solution (1 min×1), a 70 vol % aqueous ethanol solution (1 min×1), and purified water (2.5 min×2). A 10 vol % aqueous ethanol solution of each radioactive iodine-labeled BIP derivative compound (370 kBq/mL) obtained by the method shown in Example 7 was added thereto, and the tissue sections were incubated at room temperature for 2 hours. The tissue sections were washed with a 50 vol % aqueous ethanol solution (1 hr×1), then exposed to an imaging plate (BAS-SR2025 manufactured by Fujifilm Corp.), and analyzed using a bioimaging analyzer (bioimaging analyzer BAS-5000 manufactured by Fujifilm Corp.). Multi Gauge manufactured by Fujifilm Corp. was used in quantitative analysis.
FIGS. 5E and 5F show the results obtained using [^125I]BIP-NMe2. FIGS. 5G and 5H show the results obtained using [^125I]BIP-OMe. FIGS. 5I and 5J show the results obtained using [^125I]BIP-Me. FIGS. 5E, 5G, and 5I show the results obtained using the brain tissue section of the frontal lobe. FIGS. 5F, 5H, and 5J show the results obtained using the brain tissue section of the temporal lobe.
Tau and Aβ were immunostained using sections adjacent to the autopsied AD brain tissue sections used in autoradiography. An anti-phosphorylated tau monoclonal antibody (AT8, manufactured by Thermo Fisher Scientific Inc.) was used as a primary antibody in the immunostaining of tau, and an anti-Aβ1-42 monoclonal antibody (BC05, manufactured by Wako Pure Chemical Industries, Ltd.) was used as a primary antibody in the immunostaining of Aβ. Deparaffinization treatment was performed by washing with xylene (15 min×2), ethanol (1 min×2), a 90 vol % aqueous ethanol solution (1 min×1), an 80 vol % aqueous ethanol solution (1 min×1), a 70 vol % aqueous ethanol solution (1 min×1), and purified water (2.5 min×2). The antigens were retrieved by autoclaving (15 min) in a 0.01 mol/L citrate buffer solution (pH 6.0) and formic acid treatment (5 min). The tissue sections were washed with running water (5 min) and then washed with PBS-Tween 20 (2 min×1). The tissue sections were reacted with primary antibody solutions at room temperature for 1 hour and then washed with PBS-Tween 20 (5 min×3). The tissue sections were reacted with Histofine Simple Stain MAX-PO (MULTI) (manufactured by Nichirei Biosciences Inc.) at room temperature for 30 minutes and then washed with PBS-Tween 20 (3 min×3) and TBS (5 min×1). Finally, the tissue sections were reacted with a DAB solution at room temperature for 1 minute. The tissue sections were washed with distilled water (1 min×1) to terminate the reaction. The brain tissue sections were mounted on slides and then observed under a microscope (BZ-9000 manufactured by Keyence Corporation).
FIGS. 5A and 5B show the results obtained using the brain tissue section of the frontal lobe. FIGS. 5C and 5D show the results obtained using the brain tissue section of the temporal lobe. FIGS. 5A and 5C show the results of immunostaining with the antibody against tau. FIGS. 5B and 5D show the results of immunostaining with the antibody against Aβ.

[2] = Evaluation of in vivo radioactivity distribution in normal mouse; conditions: normal ddY male mice, tail vein; for radioactivity distribution, Blood / radioactivity distribution, Brain / radioactivity distribution, Heart / radioactivity distribution, Intestine / radioactivity distribution, Kidney / radioactivity distribution, Liver / radioactivity distribution, Lung / radioactivity distribution, Pancreas / radioactivity distribution, Spleen / radioactivity distribution, Stomach / radioactivity distribution, Thyroid gland: mean (SD)
Method: (Evaluation 2) Evaluation of In Vivo Radioactivity Distribution in Normal Mouse
Each compound of [^125I]BIP-NMe2, [^125I]BIP-OMe, and [^125I]BIP-Me synthesized according to the method shown in Example 7 was diluted with saline containing 10 vol % ethanol and 0.1 vol % Tween 80. Each radioactive iodine-labeled BIP derivative compound was administered to a group of 5-week-old ddY male mice (26 to 28 g; each group involved 5 mice) from the tail veins thereof at 19.6 to 29.4 kBq (100 μL) per mouse. After 2, 10, 30, or 60 minutes, the mice were slaughtered. After blood collection, the organs were taken out, and their weights and radioactivity were measured.
In Tables 2 to 4, the numerical values shown in the column “Time after administration” are means of % ID for the stomach and the thyroid gland and means of % ID/g for the other tissues with standard deviation (SD) shown in parenthesis.

COc1ccn2c(c1)nc1cc([125I])ccc12 [[^125I]BIP-OMe, 7-[^125I]iodo-3-methoxypyrido[1,2-a]benzimidazole]
radioactivity accumulation in the brain tissue section of the frontal lobe ([1]; AD patient autopsied brain section, frontal lobe, 370 kBq/mL, 2 hours room temperature): none
radioactivity accumulation in the brain tissue section of the temporal lobe ([1]; AD patient autopsied brain section, temporal lobe, 370 kBq/mL, 2 hours room temperature): exhibited radioactivity accumulation in only the brain tissue section of the temporal lobe
nonspecific binding to the brain white matter ([1]; AD patient autopsied brain sections): low
visualization of tau (autoradiography compared with tau and Aβ immunostaining) ([1]; AD patient temporal lobe section, adjacent sections immunostained (AT8, BC05)): clearly visualizes tau accumulated in the brain with AD
clearance from the brain [2]: rapid clearance from the brain
transfer to the brain early after administration [2]: high transfer to the brain
radioactivity distribution, Blood ([2]; 2 min after administration): 5.41(0.40) % ID/g
radioactivity distribution, Brain ([2]; 2 min after administration): 4.30(0.41) % ID/g
radioactivity distribution, Heart ([2]; 2 min after administration): 5.17(0.27) % ID/g
radioactivity distribution, Intestine ([2]; 2 min after administration): 2.94(0.15) % ID/g
radioactivity distribution, Kidney ([2]; 2 min after administration): 8.66(0.73) % ID/g
radioactivity distribution, Liver ([2]; 2 min after administration): 17.8(3.98) % ID/g
radioactivity distribution, Lung ([2]; 2 min after administration): 6.09(0.34) % ID/g
radioactivity distribution, Pancreas ([2]; 2 min after administration): 4.38(0.30) % ID/g
radioactivity distribution, Spleen ([2]; 2 min after administration): 3.60(1.10) % ID/g
radioactivity distribution, Stomach ([2]; 2 min after administration): 2.30(0.33) % ID
radioactivity distribution, Thyroid gland ([2]; 2 min after administration): 0.10(0.05) % ID
radioactivity distribution, Blood ([2]; 10 min after administration): 3.39(0.12) % ID/g
radioactivity distribution, Brain ([2]; 10 min after administration): 0.71(0.14) % ID/g
radioactivity distribution, Heart ([2]; 10 min after administration): 1.94(0.18) % ID/g
radioactivity distribution, Intestine ([2]; 10 min after administration): 8.99(1.43) % ID/g
radioactivity distribution, Kidney ([2]; 10 min after administration): 7.38(1.46) % ID/g
radioactivity distribution, Liver ([2]; 10 min after administration): 16.2(1.80) % ID/g
radioactivity distribution, Lung ([2]; 10 min after administration): 3.33(0.24) % ID/g
radioactivity distribution, Pancreas ([2]; 10 min after administration): 1.59(0.18) % ID/g
radioactivity distribution, Spleen ([2]; 10 min after administration): 3.16(0.18) % ID/g
radioactivity distribution, Stomach ([2]; 10 min after administration): 5.47(0.88) % ID
radioactivity distribution, Thyroid gland ([2]; 10 min after administration): 0.04(0.02) % ID
radioactivity distribution, Blood ([2]; 30 min after administration): 2.24(0.27) % ID/g
radioactivity distribution, Brain ([2]; 30 min after administration): 0.17(0.02) % ID/g
radioactivity distribution, Heart ([2]; 30 min after administration): 0.99(0.08) % ID/g
radioactivity distribution, Intestine ([2]; 30 min after administration): 16.8(4.30) % ID/g
radioactivity distribution, Kidney ([2]; 30 min after administration): 5.74(2.30) % ID/g
radioactivity distribution, Liver ([2]; 30 min after administration): 7.25(1.28) % ID/g
radioactivity distribution, Lung ([2]; 30 min after administration): 1.76(0.11) % ID/g
radioactivity distribution, Pancreas ([2]; 30 min after administration): 0.86(0.22) % ID/g
radioactivity distribution, Spleen ([2]; 30 min after administration): 1.07(0.08) % ID/g
radioactivity distribution, Stomach ([2]; 30 min after administration): 6.62(1.28) % ID
radioactivity distribution, Thyroid gland ([2]; 30 min after administration): 0.01(0.00) % ID
radioactivity distribution, Blood ([2]; 60 min after administration): 1.27(0.15) % ID/g
radioactivity distribution, Brain ([2]; 60 min after administration): 0.08(0.03) % ID/g
radioactivity distribution, Heart ([2]; 60 min after administration): 0.52(0.08) % ID/g
radioactivity distribution, Intestine ([2]; 60 min after administration): 20.1(4.03) % ID/g
radioactivity distribution, Kidney ([2]; 60 min after administration): 2.20(1.20) % ID/g
radioactivity distribution, Liver ([2]; 60 min after administration): 4.61(0.35) % ID/g
radioactivity distribution, Lung ([2]; 60 min after administration): 1.21(0.30) % ID/g
radioactivity distribution, Pancreas ([2]; 60 min after administration): 0.53(0.13) % ID/g
radioactivity distribution, Spleen ([2]; 60 min after administration): 0.63(0.10) % ID/g
radioactivity distribution, Stomach ([2]; 60 min after administration): 5.34(1.23) % ID
radioactivity distribution, Thyroid gland ([2]; 60 min after administration): 0.01(0.00) % ID
